Data published in PMC5240995, “Lysine Decarboxylase with an Enhanced Affinity for Pyridoxal 5-Phosphate by Disulfide Bond-Mediated Spatial Reconstitution” (PLoS ONE, 2017).

Target: T1, SrLDC (Pseudoselenomonas ruminantium, UniProt O50657, A225C/T302C)
T1 construct: gene ldc
Experiment: isothermal titration calorimetry
Assay type: binding

T1 sequence (O50657 whole entry A225C/T302C): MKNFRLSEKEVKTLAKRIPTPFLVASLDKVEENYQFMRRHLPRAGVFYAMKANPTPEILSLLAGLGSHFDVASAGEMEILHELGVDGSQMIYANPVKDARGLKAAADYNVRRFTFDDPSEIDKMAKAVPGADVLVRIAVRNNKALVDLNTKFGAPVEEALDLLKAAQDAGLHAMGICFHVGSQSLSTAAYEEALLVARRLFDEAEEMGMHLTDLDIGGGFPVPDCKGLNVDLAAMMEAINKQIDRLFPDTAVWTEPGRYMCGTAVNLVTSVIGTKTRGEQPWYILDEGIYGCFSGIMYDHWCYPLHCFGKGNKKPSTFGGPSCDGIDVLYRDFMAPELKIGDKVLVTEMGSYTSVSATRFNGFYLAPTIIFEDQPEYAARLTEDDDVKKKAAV

**Q.** With `Cc1ncc(COP(=O)(O)O)c(C=O)c1O` [pyridoxal 5-phosphate] as the molecule, how does the Kd read?
**A.** Its Kd is 21 µM.
